Data taken from patent US10314814B2, “Composition comprising 7-hydroxymatairesinol” (LINNEA S.A., priority 2014, dated 2019).

What was measured:
Type in all cases: in vivo, mice (C57BL/6J)
[1] = Test 4 - glucose tolerance test; conditions: summary statement; data in FIG. 4
Procedure: (§1) A group of 140 mice (C57BL/6J) was divided in four sub-groups, group 1 having twenty mice and groups 2 to 4 having forty mice each. Group 1 was fed for 60 days with a low fat (LF) diet (providing 10% calories from fat). Group 2 was fed for 60 days with a high fat (HF) diet (providing 50% calories from fat). Groups 3 and 4 were fed for 60 days with a high fat diet and with 3 mg/kg/day of HMRlignan™ purified HMR (HF+HMR) or 10 mg/kg/day of a total extract of Picea abies (HF+TEP), respectively.
(§2) Mice were kept in animal cabinets maintained at a temperature of 23° C., with natural light/dark cycles. Before treatments, mice were put 5 days on an low fat diet. Mice were fed by gavage daily for 60 days (groups 3 and 4), whilst control groups (1 and 2) received by gavage the carrier only (corn oil). The animals were sacrificed by cervical dislocation and the tissues dissected and immediately frozen on dry ice or fixed for histological evaluation.
For glucose tolerance tests animals were fasted overnight for 12 hours and blood sample were obtained from the tail vein. […] The glucose concentration was evaluated with standard method (Benjamin B. Whiddon and Richard D. Palmiter. Ablation of Neurons Expressing Melanin-Concentrating Hormone (MCH) in Adult Mice Improves Glucose Tolerance Independent of MCH Signaling. J Neurosci. 2013 Jan. 30; 33(5): 2009-2016).

liver tissue = test: Test 3 - liver steatosis (histology); conditions: high fat diet, 60 days; HMR 3 mg/kg/day, TEP 10 mg/kg/day; compared with HF group 2 (micro- and macro vesicular steatosis)
Procedure: as §1, §2
Fresh liver tissue was fixed in formaldehyde, embedded in paraffin and sliced into 3-μm sections. Sections were stained with hematoxylin, counterstained with eosin, then coverslipped with DPX (BDH, Poole, UK). Images acquisition was obtained by a digital camera (Nikon Digital Camera DMX 1200). A sample image of the four groups was illustrated in FIG. 3.

[2] = test system: ATGL, PLA2g7 and LPL mRNA; test: Test 8 - regulation of genes of the lipid metabolism (epidydimal adipose tissue); conditions: summary statement; data in FIGS. 7a-7c
Procedure: as §1, §2
The expression of ATGL, PLA2g7 and LPL mRNA was measured in the epidydimal adipose tissue of the four groups of mice according to standard procedures as follows.
(§3) Total RNA was extracted from 10 to 30 mg of tissue using the RNeasy Lipid Tissue Kit (Qiagen, Maryland, USA) and following the manufacture's instruction. […] Quantitative PCR was performed using Assay on Demand kits based on TaqMan chemistry (Applied Biosystems). […]

[3] = test system: epidydimal adipose tissue; test: Test 2 - histological examination, average adipocyte area
Procedure: as §1, §2
Fresh epidydimal adipose tissue was fixed in formaldehyde, embedded in paraffin and sliced into 3-μm sections. Sections were stained with hematoxylin, counterstained with eosin, then coverslipped with DPX (BDH, Poole, UK). […]
Average adipocyte area was calculated at ×20 magnification with a dedicated software (Image Pro Plus; Imaging and Computer, Milan). In all samples, at least four different fields of three different tissue sections have been evaluated.

[4] = Test 1 - fat mass and lean mass quantification (EchoMRI), body weight; conditions: summary statement; data in FIGS. 1 and 2
Procedure: as §1
as §2, with “The animals were sacrificed by cervical dislocation and the tissues dissected and immediately frozen on dry ice or fixed for histological evaluation.” left out
EchoMRI provides the most precise measurements of whole body composition parameters (total body fat and lean mass), in alive mice without the need of anesthesia or sedation and in less than 1 minute. Alterations in mouse whole body composition were assessed as a result of exposure to modified diets. […]
The EchoMRI-100™ QNMR system was housed in a dedicated area to minimize the entry of disease or contaminants. […] The output information was expressed as lean tissue mass and fat mass in grams. […]

[5] = test system: hepcidin, ferritin and ferroportin; test: Test 11 - iron metabolism; conditions: summary statement; data in FIG. 11
Procedure: as §1, §2
The levels of hepcidin, ferritin and ferroportin were measured in the four groups of mice according to standard procedures as described, for example, in An-Sheng Zhang et al. “Suppression of hepatic hepcidin expression in response to acute iron deprivation is associated with an increase of matriptase-2 protein”, Blood. Feb. 3, 2011; 117(5):1687-1699).

IL-6 and TNF-alfa mRNA = test: Test 7 - inflammatory cytokine mRNA expression; conditions: summary statement; data in FIGS. 6a-6c
Procedure: as §1
as §2, with “The animals were sacrificed by cervical dislocation and the tissues dissected and immediately frozen on dry ice or fixed for histological evaluation.” left out
The expression of inflammatory cytokine mRNA was measured in the epidydimal adipose tissue (IL-6 and TNF-alfa) and liver (IL-6) in the four groups of mice according to standard procedures as follows.
as §3

[6] = Test 6 - lipid profiles in blood
Procedure: as §1, §2
The concentration in blood of cholesterol (Total), cholesterol HDL (HDL), cholesterol LDL (LDL) and triglycerides (TG) were determined according to standard methods, by using an ILab ARIES analyzer (Instrumentation Laboratory Company, Lexington, Mass., USA) and dedicated reagents kits IL Test (Instrumentation Laboratory Company, Lexington, Mass., USA)

PPARg and TFEB mRNA = test: Test 9 - regulation of genes of the lipid metabolism (liver); conditions: summary statement; data in FIGS. 8a, 8b
Procedure: as §1, §2
The expression of PPARg and TFEB mRNA was measured in the liver of the four groups of mice according to standard procedures as follows.
as §3

GSTs mRNA; 8OHdG and dGU = test: Test 10 - oxidative stress (GSTs mRNA, 8OHdG/dGU); conditions: summary statement; data in FIGS. 9, 10
Procedure: as §1
Mice were kept in animal cabinets maintained at a temperature of 23° C., with natural light/dark cycles. Before treatments, mice were put 5 days on an low fat diet. […]
The expression of GSTs mRNA was measured in the four groups of mice according to standard procedures as follows.
as §3
The expression of 8OHdG and dGU […] was measured in the four groups of mice according to standard procedures as follows.
Genomic DNA was isolated with commercial kit PUREGENE (Gentra Systems MN, USA), following the manufacturer's instructions, and then quantified using Nanodrop spectrophotometer (Thermo Scientific, DE, USA). […]

[7] = Test 5 - homeostasis model assessment of insulin resistance (HOMA-IR); conditions: HOMA Calculator, glucose and insulin after 6 hours of food withdrawal, high fat diet, 60 days
Procedure: as §1, §2
The homeostatic model assessment of insulin resistance (HOMA-IR) was calculated using glucose and insulin concentrations obtained after 6 hours of food withdrawal, using the HOMA Calculator (Diabetes Trials Unit), the Oxford Centre for Diabetes, Endocrinology and Metabolism: homa.calculator@dtu.ox.ac.uk. Plasma insulin levels were measured with an insulin ELISA kit (Millipore, Mouse Insulin 96 well plate assay; CAT. Nº EZRMI-13K).

## COc1cc(CC2C(=O)OCC2C(O)c2ccc(O)c(OC)c2)ccc1O (stereo not drawn) [HMR, 7-hydroxymatairesinol]
[1]
  glycaemia: able to reduce
Liver tissue
  Liver histology (steatosis): some vacuoles, much less than group 2
[2]
  regulation of genes of the lipid metabolism in the epidydimal adipose tissue (ATGL mRNA, PLA2g7 gene, LPL gene): able to contribute to the regulation
[3]; epidydimal adipose tissue, high fat diet, 60 days, daily gavage, HMR 3 mg/kg/day, TEP 10 mg/kg/day, HF control 20832, LF 9275, data only indicative, group 3 vs group 2 statistically different
  Average area (adipocyte): 18478 μm^2
[3]; summary statement
  number and area of adipocytes: able to reduce
[4]
  obesity: able to reduce
[5]
  iron metabolism: regulate
IL-6 and TNF-alfa mRNA
  concentration of pro-inflammatory cytokines in the epidydimal adipose tissue and liver: reduce
[6]; high fat diet, 60 days, HF control 56, LF 18
  cholesterol LDL (LDL) concentration in blood: 51
[6]; high fat diet, 60 days, HF control 133, LF 79
  cholesterol HDL (HDL) concentration in blood: 129
[6]; high fat diet, 60 days, HF control 153, LF 88
  triglycerides (TG) concentration in blood: 140
[6]; high fat diet, 60 days, HMR 3 mg/kg/day, TEP 10 mg/kg/day, HF control 220, LF 114
  cholesterol (Total) concentration in blood: 209
[6]; summary statement
  dyslipidemia: able to reduce
PPARg and TFEB mRNA
  regulation of genes of the lipid metabolism in the liver (PPARg gene, TFEB gene): able to contribute to the regulation
GSTs mRNA; 8OHdG and dGU
  cellular oxidative stress: able to reduce
[7]; HF control 6.97, LF 0.69
  IR: Insulin resistance: 2.04
[7]; HF control 15.0, LF 121.0
  % S: Insulin sensitivity: 31.9
[7]; HF control 101.0, LF 64.4
  % B: Steady state beta cell function: 55.0
